Our source for the TGI values is PubChem BioAssay (NCI).

Among the test systems are K-562 leukemia; COLO 205 colon; EKVX NSCLC; A549 NSCLC; MDA-N; T-47D breast; DU-145 prostate; BT-549 breast; LOX IMVI melanoma; HOP-92 NSCLC; HCT-116 colon; CAKI-1 renal; RXF 393 renal; HS 578T breast; SF-268 CNS; MALME-3M melanoma; MDA-MB-231 breast.
Experiment in all cases: NCI tumour cell line growth inhibition, 48 h

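Exposure lasted 48 hours, with cells grown in 96-well plates and compounds tested at five concentrations. Definition used: TGI = concentration required for complete inhibition of growth.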 A value given as a limit tells only on which side of the number the result lay.

`CCNC12CCC(C1)C(C)(C)C2=O` (centres undefined): the TGI with K-562 leukemia, in the assay on COLO 205 colon, with EKVX NSCLC, in the assay on A549 NSCLC, in the assay with MDA-N and with T-47D breast was above 100 µM each time. Moreover, the TGI in the assay with DU-145 prostate, in the assay with BT-549 breast, in the assay with LOX IMVI melanoma, with HOP-92 NSCLC, in the assay with HCT-116 colon and with CAKI-1 renal was above 100 µM each time. Further, in the assay with RXF 393 renal, the TGI is above 100 µM.

Turning to `CC(C)(C)OC(=O)NCCCC(=O)NC1(c2cc3ccccc3s2)CCCCC1`, the TGI was 45.8 µM in the assay on HS 578T breast; 51.4 µM with K-562 leukemia; 29 µM in the assay on COLO 205 colon; 35.9 µM with EKVX NSCLC; 39.7 µM with SF-268 CNS; above 100 µM in the assay on A549 NSCLC. Moreover, the TGI is 34.2 µM in the assay with MDA-N; above 100 µM with T-47D breast; above 100 µM in the assay on DU-145 prostate; 32.7 µM in the assay with BT-549 breast; 29.6 µM with LOX IMVI melanoma; 37.6 µM with HOP-92 NSCLC. Besides, the TGI is 37 µM with MALME-3M melanoma, 30.1 µM with HCT-116 colon, 93.1 µM with CAKI-1 renal and 44.1 µM with RXF 393 renal.

Take `CC(C)(C)OC(=O)NCCNCCNc1ccccc1`: the TGI with K-562 leukemia, in the assay on COLO 205 colon, in the assay on EKVX NSCLC, in the assay on MDA-MB-231 breast, with A549 NSCLC and with MDA-N was above 100 µM in each case. In addition, the TGI in the assay with T-47D breast, in the assay on DU-145 prostate, in the assay on BT-549 breast, in the assay on LOX IMVI melanoma, in the assay on HOP-92 NSCLC and with MALME-3M melanoma was above 100 µM each time. Further, the TGI with HCT-116 colon, in the assay with CAKI-1 renal and with RXF 393 renal was above 100 µM each time.

With `CC(C)C[C@H](NC(=O)[C@H](Cc1ccc(F)cc1)NC(=O)c1ccccn1)B(O)O`, the TGI in the assay with HS 578T breast is below 0.0121 µM; in the assay on K-562 leukemia it was above 100 µM; with COLO 205 colon, 1.12 µM; with EKVX NSCLC, 0.0933 µM; in the assay with SF-268 CNS, below 0.01 µM; in the assay with MDA-MB-231 breast, below 0.01 µM. Also, the TGI in the assay on A549 NSCLC is 0.165 µM; in the assay with MDA-N, below 0.01 µM; with T-47D breast it was below 0.01 µM; in the assay on BT-549 breast, below 0.01 µM; with LOX IMVI melanoma, below 0.01 µM; in the assay with HOP-92 NSCLC it was below 0.01 µM. Moreover, the TGI with MALME-3M melanoma is below 0.01 µM; with HCT-116 colon, below 0.01 µM; in the assay on CAKI-1 renal, below 0.0124 µM; in the assay with RXF 393 renal, below 0.01 µM.

For the molecule `Cn1c2ccccc2c(=O)c2cccc(C(=O)NCC(=O)O)c21`, the TGI in the assay with HS 578T breast, with K-562 leukemia, in the assay with COLO 205 colon, with EKVX NSCLC, with SF-268 CNS and in the assay on MDA-MB-231 breast was above 100 µM throughout. For the same molecule, the TGI in the assay on A549 NSCLC, in the assay on MDA-N, with T-47D breast, in the assay with DU-145 prostate, in the assay with BT-549 breast and with LOX IMVI melanoma was above 100 µM each time. The TGI in the assay on MALME-3M melanoma and with HCT-116 colon was above 100 µM each time.

Turning to `COC(=O)C1Cc2ccc3c(c2C1=O)CCCC3` (centres undefined), the TGI in the assay on HS 578T breast, with K-562 leukemia, in the assay with COLO 205 colon, in the assay with EKVX NSCLC, with SF-268 CNS and in the assay with MDA-MB-231 breast was above 100 µM in each case. The TGI with A549 NSCLC, in the assay with MDA-N, in the assay with T-47D breast, in the assay on DU-145 prostate, in the assay on BT-549 breast and with LOX IMVI melanoma was above 100 µM each time. Besides, the TGI in the assay on MALME-3M melanoma, in the assay with HCT-116 colon and with CAKI-1 renal was above 100 µM throughout.

In the case of `O=c1cc(N=Nc2ccc(Cl)c(Cl)c2)[nH]c(=O)[nH]1`, the TGI with HS 578T breast was 13.1 µM; in the assay on K-562 leukemia, 4.02 µM; in the assay with COLO 205 colon it was 3.36 µM; with EKVX NSCLC, 3.49 µM; in the assay on SF-268 CNS it was 7.57 µM; with MDA-MB-231 breast it was 3.38 µM. The TGI in the assay on A549 NSCLC stood at 42.3 µM; in the assay with MDA-N, 3.36 µM; in the assay with DU-145 prostate it was 9.19 µM; in the assay on BT-549 breast, 4.77 µM; in the assay with LOX IMVI melanoma, 3.36 µM; in the assay with HOP-92 NSCLC it was 3.07 µM. Further, the TGI in the assay with MALME-3M melanoma stood at 4.53 µM; in the assay on HCT-116 colon, 3.21 µM; with CAKI-1 renal, 5.56 µM; in the assay on RXF 393 renal, 3.17 µM.

For `O=S1(=O)OCCOS(=O)(=O)C1Cc1cccc2ccccc12`, the TGI was 84.9 µM in the assay with HS 578T breast; 38.2 µM in the assay on K-562 leukemia; 29.2 µM with COLO 205 colon; 80.3 µM in the assay with EKVX NSCLC; 57.8 µM with SF-268 CNS; 46.6 µM in the assay with MDA-MB-231 breast. For the same molecule, the TGI was above 100 µM in the assay with A549 NSCLC; 59.3 µM in the assay with MDA-N; above 100 µM with T-47D breast; 31.1 µM with DU-145 prostate; 55.4 µM with LOX IMVI melanoma; 56.6 µM in the assay on HOP-92 NSCLC. The TGI in the assay with MALME-3M melanoma is 31.2 µM; with HCT-116 colon it was 48.3 µM; with CAKI-1 renal, above 100 µM; in the assay on RXF 393 renal it was 12 µM.

Regarding `O=C(NNC(=S)NCc1ccccc1)c1csc(NC(=S)NC2CCCCC2)n1`, the TGI in the assay with COLO 205 colon was 49.6 µM; in the assay with EKVX NSCLC it was above 100 µM; in the assay with SF-268 CNS, above 100 µM; in the assay with MDA-MB-231 breast, 83.3 µM; with A549 NSCLC, above 100 µM; in the assay with MDA-N, 73.2 µM. Also, the TGI is 95.4 µM with T-47D breast; above 100 µM in the assay on DU-145 prostate; above 100 µM in the assay on BT-549 breast; above 100 µM in the assay on LOX IMVI melanoma; above 100 µM in the assay with MALME-3M melanoma; 72.3 µM with HCT-116 colon. This molecule also returned a TGI with CAKI-1 renal above 100 µM.
